Species: Rattus norvegicus
Experiment: Open TG-GATES - Regimen: Single
Type: toxicity, organism-based, Sprague-Dawley
Parameters: regimen Single, gender Male, age 6 weeks
Conditions: in vivo, po, 30 mg/kg, route gavage, dose level Middle; for APTT / Bas / Eos / Fbg / Hb / Ht / Lym / MCH / MCHC / MCV / Mono / Neu / PT / Plat / RBC / Ret / WBC: tissue Blood; for KIDNEY_L / KIDNEY_R / KIDNEY_TOTAL: tissue Kidney; for LIVER: tissue Liver; for A/G / ALP / ALT / AST / BUN / CRE / Ca / Cl / DBIL / GLC / IP / K / LDH / Na / PL / RALB / TBIL / TC / TG / TP / gamma-GTP: tissue Plasma

## CCN(CC)N=O [N-NITROSODIETHYLAMINE]
3 h
  TERMINAL_BW: 220.7 g
  APTT: 19.6 s
  Bas: 0%
  Eos: 1%
  Fbg: 200.2 mg/dL
  Hb: 13.1 g/dL
  Ht: 37.7%
  Lym: 80.2%
  MCH: 21.4 pg
  MCHC: 34.6%
  MCV: 61.8 fL
  Mono: 1.6%
  Neu: 16.6%
  PT: 12 s
  Plat: 118.4 x10_4/uL
  RBC: 610.2 x10_4/ul
  Ret: 7.2%
  WBC: 67.1 x10_2/uL
  KIDNEY_L: 1 g
  KIDNEY_R: 1 g
  KIDNEY_TOTAL: 2 g
  LIVER: 9.5 g
  A/G: 1.6
  ALP: 868.6 IU/L
  ALT: 37.8 IU/L
  AST: 72 IU/L
  BUN: 11 mg/dL
  CRE: 0.4 mg/dL
  Ca: 10.1 mg/dL
  Cl: 102.4 meq/L
  DBIL: 0.06 mg/dL
  GLC: 195.6 mg/dL
  IP: 8.6 mg/dL
  K: 3.6 meq/L
  LDH: 179.2 IU/L
  Na: 140.6 meq/L
  PL: 130.2 mg/dL
  RALB: 3.3 g/dL
  TBIL: 0.1 mg/dL
  TC: 82.6 mg/dL
  TG: 38.6 mg/dL
  TP: 5.4 g/dL
  gamma-GTP: 0.8 IU/L
6 h
  TERMINAL_BW: 224.6 g
  APTT: 18.5 s
  Bas: 0.6%
  Eos: 1%
  Fbg: 234.2 mg/dL
  Hb: 13.4 g/dL
  Ht: 38.8%
  Lym: 78.8%
  MCH: 21.8 pg
  MCHC: 34.5%
  MCV: 63.1 fL
  Mono: 2.8%
  Neu: 16.2%
  PT: 12.4 s
  Plat: 135.1 x10_4/uL
  RBC: 615.6 x10_4/ul
  Ret: 7.7%
  WBC: 111.7 x10_2/uL
  KIDNEY_L: 1 g
  KIDNEY_R: 1 g
  KIDNEY_TOTAL: 1.9 g
  LIVER: 9.9 g
  A/G: 1.6
  ALP: 932.2 IU/L
  ALT: 40.6 IU/L
  AST: 78 IU/L
  BUN: 14.2 mg/dL
  CRE: 0.4 mg/dL
  Ca: 10.3 mg/dL
  Cl: 104.2 meq/L
  DBIL: 0.072 mg/dL
  GLC: 186.4 mg/dL
  IP: 8.3 mg/dL
  K: 3.9 meq/L
  LDH: 224 IU/L
  Na: 141 meq/L
  PL: 130.8 mg/dL
  RALB: 3.3 g/dL
  TBIL: 0.1 mg/dL
  TC: 81.4 mg/dL
  TG: 37.8 mg/dL
  TP: 5.4 g/dL
  gamma-GTP: 1.6 IU/L
9 h
  TERMINAL_BW: 224.1 g
  APTT: 18.7 s
  Bas: 0.4%
  Eos: 1%
  Fbg: 229 mg/dL
  Hb: 13.7 g/dL
  Ht: 39.6%
  Lym: 79.6%
  MCH: 21.5 pg
  MCHC: 34.4%
  MCV: 62.4 fL
  Mono: 3%
  Neu: 15%
  PT: 12.4 s
  Plat: 126.6 x10_4/uL
  RBC: 635.4 x10_4/ul
  Ret: 7.1%
  WBC: 94.4 x10_2/uL
  KIDNEY_L: 1 g
  KIDNEY_R: 1 g
  KIDNEY_TOTAL: 1.9 g
  LIVER: 10 g
  A/G: 1.7
  ALP: 978.4 IU/L
  ALT: 45.6 IU/L
  AST: 80.4 IU/L
  BUN: 15.4 mg/dL
  CRE: 0.4 mg/dL
  Ca: 10.4 mg/dL
  Cl: 103.4 meq/L
  DBIL: 0.088 mg/dL
  GLC: 186 mg/dL
  IP: 8.6 mg/dL
  K: 3.8 meq/L
  LDH: 191.6 IU/L
  Na: 141.2 meq/L
  PL: 130.4 mg/dL
  RALB: 3.5 g/dL
  TBIL: 0.1 mg/dL
  TC: 76.8 mg/dL
  TG: 44.8 mg/dL
  TP: 5.5 g/dL
  gamma-GTP: 1.4 IU/L
24 h
  TERMINAL_BW: 225 g
  APTT: 17.9 s
  Bas: 1%
  Eos: 1%
  Fbg: 217.4 mg/dL
  Hb: 14 g/dL
  Ht: 41.2%
  Lym: 81%
  MCH: 21.6 pg
  MCHC: 33.9%
  MCV: 63.8 fL
  Mono: 3%
  Neu: 13.6%
  PT: 12.7 s
  Plat: 125.9 x10_4/uL
  RBC: 645.6 x10_4/ul
  Ret: 6.7%
  WBC: 95.1 x10_2/uL
  KIDNEY_L: 1 g
  KIDNEY_R: 1 g
  KIDNEY_TOTAL: 2 g
  LIVER: 9.5 g
  A/G: 1.6
  ALP: 918.6 IU/L
  ALT: 37.8 IU/L
  AST: 71 IU/L
  BUN: 12.8 mg/dL
  CRE: 0.4 mg/dL
  Ca: 10.7 mg/dL
  Cl: 103.4 meq/L
  DBIL: 0.084 mg/dL
  GLC: 193 mg/dL
  IP: 9 mg/dL
  K: 3.9 meq/L
  LDH: 212.4 IU/L
  Na: 140.6 meq/L
  PL: 135.8 mg/dL
  RALB: 3.3 g/dL
  TBIL: 0.1 mg/dL
  TC: 78.4 mg/dL
  TG: 47.2 mg/dL
  TP: 5.3 g/dL
  gamma-GTP: 1.4 IU/L
